According to PubChem BioAssay (NCI):
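Here, GI50 denotes the concentration required for 50% inhibition of growth. TGI: total growth inhibition.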

Experiments:
Assay in all cases: NCI tumour cell line growth inhibition, 384-well format; in the data active means GI50 below about 0.43 µM; inactive means the rest
786-0 renal = system: 786-0 renal
A498 renal = system: A498 renal
A549 NSCLC = system: A549 NSCLC
ACHN renal = system: ACHN renal
CAKI-1 renal = system: CAKI-1 renal
CCRF-CEM leukemia = system: CCRF-CEM leukemia
COLO 205 colon = system: COLO 205 colon
DU-145 prostate = system: DU-145 prostate
EKVX NSCLC = system: EKVX NSCLC
HCC-2998 colon = system: HCC-2998 colon
HCT-116 colon = system: HCT-116 colon
HCT-15 colon = system: HCT-15 colon
HL-60(TB) leukemia = system: HL-60(TB) leukemia
HOP-62 NSCLC = system: HOP-62 NSCLC
HOP-92 NSCLC = system: HOP-92 NSCLC
HS 578T breast = system: HS 578T breast
HT29 colon = system: HT29 colon
IGROV1 ovarian = system: IGROV1 ovarian
K-562 leukemia = system: K-562 leukemia
KM12 colon = system: KM12 colon
LOX IMVI melanoma = system: LOX IMVI melanoma
M14 melanoma = system: M14 melanoma
MALME-3M melanoma = system: MALME-3M melanoma
MCF7 breast = system: MCF7 breast
MDA-MB-231 breast = system: MDA-MB-231 breast
MDA-MB-468 breast = system: MDA-MB-468 breast
MOLT-4 leukemia = system: MOLT-4 leukemia
NCI-H226 lung = system: NCI-H226 lung
NCI-H23 lung = system: NCI-H23 lung

COc1cc2ncnc3c2cc1OCCCCCN(C)Cc1ccc(Br)cc1N3
> 100 µM: TGI (786-0 renal) | TGI (A498 renal) | TGI (A549 NSCLC) | TGI (CAKI-1 renal) | TGI (CCRF-CEM leukemia) | TGI (COLO 205 colon) | TGI (DU-145 prostate) | TGI (EKVX NSCLC) | TGI (HCC-2998 colon) | TGI (HCT-116 colon) | TGI (HCT-15 colon) | TGI (HOP-62 NSCLC) | TGI (HOP-92 NSCLC) | TGI (HS 578T breast) | TGI (HT29 colon) | TGI (K-562 leukemia) | TGI (KM12 colon) | TGI (LOX IMVI melanoma) | TGI (M14 melanoma) | TGI (MALME-3M melanoma) | TGI (MCF7 breast) | TGI (MDA-MB-231 breast) | TGI (NCI-H226 lung) | TGI (NCI-H23 lung)
> 19.9 µM: TGI (ACHN renal)
inactive: GI50 ([…]-0 renal) 3.92 µM | GI50 (A549 NSCLC) 2.64 µM | GI50 (CAKI-1 renal) 1.36 µM | GI50 (CCRF-CEM leukemia) 4 µM | GI50 (COLO 205 colon) > 21.1 µM | GI50 (DU-145 prostate) 1.52 µM | GI50 (EKVX NSCLC) 0.612 µM | GI50 (HCC-2998 colon) 5.37 µM | GI50 (HCT-116 colon) 3.8 µM | GI50 (HCT-15 colon) 2.86 µM | GI50 (HL-60(TB) leukemia) 1.66 µM | GI50 (HOP-62 NSCLC) 4.74 µM | GI50 (HOP-92 NSCLC) 3.32 µM | GI50 (HS 578T breast) 1.84 µM | GI50 (HT29 colon) > 20.9 µM | GI50 (K-562 leukemia) 3.88 µM | GI50 (KM12 colon) 7.47 µM | GI50 (LOX IMVI melanoma) 3.67 µM | GI50 (M14 melanoma) 3.82 µM | GI50 (MALME-3M melanoma) 3.33 µM | GI50 (MCF7 breast) 8.25 µM | GI50 (MDA-MB-231 breast) 7.15 µM | GI50 (MOLT-4 leukemia) 2.15 µM | GI50 (NCI-H226 lung) 5.87 µM | GI50 (NCI-H23 lung) 4.73 µM
2.85 µM: TGI (IGROV1 ovarian)
0.356 µM: TGI (MDA-MB-468 breast)
3.28 µM: TGI (HL-60(TB) leukemia)
active: GI50 (A498 renal) 0.383 µM | GI50 (ACHN renal) 0.263 µM | GI50 (IGROV1 ovarian) 0.419 µM | GI50 (MDA-MB-468 breast) 0.0909 µM
